One experiment has as its system p97. Description: IP of endogenous VCF1 from U2OS cells. It is filed as binding, human. The method, then:
Immunoblotting was performed as previously described. Immunoprecipitation (IP) of HA-tagged proteins was performed using Anti-HA Affinity matrix (Roche) under denaturing conditions, unless otherwise stated. GFP-trap and […] Fab-trap agarose (Chromotek) were used according to manufacturer’s instructions. Cell lysis was performed using RIPA buffer (140 mM NaCl; 10 mM Tris-HCl, pH 8.0; 0.1% sodium deoxycholate; 1% Triton X-100; 0.1% SDS; 1 mM EDTA; 0.5 mM EGTA) or EBC buffer (50 mM Tris, pH 7.5; 150 mM NaCl; 1 mM EDTA; 0.5% NP-40, 1 mM DTT). IPs were washed in non-denaturing buffer (50 mM Tris-HCl, pH 7.5; 150 mM NaCl; 0.5 mM EDTA). Cell lysis and IP under partially denaturing conditions were performed using denaturing buffer (20 mM Tris-HCl, pH 7.5; 50 mM NaCl; 0.5% sodium deoxycholate; 0.5% NP-40; 0.5% SDS; 1 mM EDTA). All lysis and wash buffers were supplemented with 1 mM fresh PMSF Protease Inhibitor (Thermo), complete EDTA-free protease inhibitor Cocktail Tablets (Roche), 1.25 mM N-ethylmaleimide (Sigma) and 50 µM PR-619 (Calbiochem).

For the next experiment, the system named is p97 (His6-p97 Y143A). Nature of the experiment: SPR: binding to immobilized His6-p97 Y143A mutant. Also noted: species or system human. Particulars: full-length VCF1 up to 100 nM. The method, then:
Surface Plasmon Resonance (SPR)
All SPR experiments were performed at 25 °C on a Biacore T200 instrument equipped with CM5 or CM7 sensor chips (Cytiva, Uppsala, Sweden). SPR running buffers and amine-coupling reagents (N-ethyl-N’-(3-dimethlyaminoproply)carbodiimide (EDC), N-hydroxysuccinimide (NHS), and ethanolamine HCl) were purchased from Cytiva. 1x PBS-P (11.9 mM NaH2PO4-Na2HPO4, pH 7.4; 137 mM NaCl; 2.7 mM KCl; 0.005% surfactant P20) supplemented with 0.5 mM TCEP was used as running buffer for the immobilization and the binding experiments with Strep-HA-VCF1 full-length proteins. For the VCF1 C-terminal peptide binding studies, 2% DMSO was additionally included in the running buffer. Eight solvent correction samples ranging from 1.5% DMSO to 2.8% DMSO prepared in either PBS-P, 0.5 mM TCEP or Tris-based buffer were used to correct buffer/DMSO mismatches. […] The dissociation rate of the p97-VCF1 complexes was monitored for 400 s. […] Binding experiments were measured in triplicates. […] The equilibrium dissociation contants, Kd, were determined by plotting the equilibrium responses levels (Req) against […] and fitting to a steady-state model.
Background: In SPR one partner is held on a chip, and binding of the other changes the refractive index at the surface.

For the substance “VCF1: human FAM104A isoform 1, 186 amino acids (UniProt Q969W3); recombinant Strep-HA-tagged”, the “interaction of endogenous VCF1 with p97” value in the experiment with p97 (U2OS whole cell lysates) is “validate an interaction between endogenous VCF1 and p97”. Besides, the “endogenous NPL4 in endogenous VCF1 IP” value in the experiment on p97 (U2OS, along with p97) is “NPL4 could be detected in endogenous VCF1 IPs along with p97”. For the same substance, the “binding to p97 Y143A (in words)” value was “did not show detectable binding affinity” in the experiment on p97 (His6-p97 Y143A) and “no dose-dependent response was observed” with p97 (His6-p97 Y143A) (listed as Strep-HA-VCF1 WT).

These data come from publication PMC10950897, “VCF1 is a p97/VCP cofactor promoting recognition of ubiquitylated p97-UFD1-NPL4 substrates” (Nature Communications, 2024).
